Laboratory results reported in patent US11976083B2, “Inhibitors of peptidylarginine deiminases” (Gilead Sciences, Inc., priority 2020, dated 2024).

Target: T1, human PAD4 (Homo sapiens, UniProt Q9UM07)
T1 construct: human PAD4 (NM_012387), A2-P663, was PCR amplified; His-SUMO (N, cleaved yes); made in house; host or cells: E. coli BL21(DE3)
Assay: In vitro PAD4 BAEE biochemical assay
Conditions: BAEE substrate 3 mM, 5 nM PAD4, 2 mM calcium chloride; geometric mean of multiple experiments
How it was run: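 Assay was run at 25 °C using 3 mM BAEE and 5 nM human PAD4 after a 30 min compound preincubation; ammonia produced over 2 h was quantified by OPA-derived fluorescence. Full inhibition was defined by 50 µM BB-Cl-Amidine, and IC50 came from variable-slope nonlinear regression.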

T1 sequence (Q9UM07 2-663): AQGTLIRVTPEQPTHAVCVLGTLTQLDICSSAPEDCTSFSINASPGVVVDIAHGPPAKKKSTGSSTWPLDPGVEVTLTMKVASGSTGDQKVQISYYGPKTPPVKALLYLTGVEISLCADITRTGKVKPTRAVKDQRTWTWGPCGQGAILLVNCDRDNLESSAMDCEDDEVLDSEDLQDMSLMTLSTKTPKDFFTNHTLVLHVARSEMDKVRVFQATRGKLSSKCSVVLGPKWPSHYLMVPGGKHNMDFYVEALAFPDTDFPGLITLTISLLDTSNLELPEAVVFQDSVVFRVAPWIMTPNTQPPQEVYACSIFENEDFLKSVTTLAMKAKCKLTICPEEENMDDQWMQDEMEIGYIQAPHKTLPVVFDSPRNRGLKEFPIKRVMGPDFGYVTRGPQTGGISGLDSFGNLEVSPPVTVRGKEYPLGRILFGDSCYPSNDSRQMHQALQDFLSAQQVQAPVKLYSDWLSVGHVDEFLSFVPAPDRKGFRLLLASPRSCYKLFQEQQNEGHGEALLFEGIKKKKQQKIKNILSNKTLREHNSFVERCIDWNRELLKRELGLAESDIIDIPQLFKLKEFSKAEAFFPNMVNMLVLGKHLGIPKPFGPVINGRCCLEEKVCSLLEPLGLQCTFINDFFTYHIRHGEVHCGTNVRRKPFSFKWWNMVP

| Structure (SMILES) | IC50 |
| --- | --- |
| COc1cc(C(=O)N2C[C@H](N)[C@@H]3CC[C@H]2C3)cc2nc(-c3cc4ccc5nc4n3CC(F)(F)CCCOC3(CC3)C(=O)N[C@@H]5C)n(C3CC3)c12 [Example 931, (11~{R})-17-[5-[(1~{S},4~{R}, 5~{R})-4-amino-2-azabicyclo [3.2.1]octane-2-carbonyl]-1-cyclopropyl-7-methoxy-benzimidazol-2-yl]-3,3-difluoro-11-methyl-spiro[7-oxa-1,10,19-triazatricyclo[10.5.2.0^ {15,18}]nonadeca-12(19), 13,15(18),16-tetraene-8,1′-cyclopropane]-9-one] | 64 nM |
| COc1cc(C(=O)N2C[C@H](N)[C@@H]3CC[C@H]2C3)cc2nc(-c3cc4ccc5nc4n3CCCCCc3nc(Cl)ccc3C(=O)NC5(C)C)n(C)c12 [Example 932, 17-[5-[(1~{S},4~{R},5~{R})-4-amino-2-azabicyclo[3.2.1]octane-2-carbonyl]-7-methoxy-1-methyl-benzimidazol-2-yl]-8-chloro-2,2-dimethyl-3,9,16,22-tetrazatetracyclo[14.5.2.0^ {5,10}.0^{19,23}]tricosa-1(21),5(10),6,8,17,19,22-heptaen-4-one] | 58 nM |
| COc1cc(C(=O)N2C[C@H](N)[C@@H]3CC[C@H]2C3)cc2nc(-c3cc4ccc5nc4n3CCCCC[C@]3(F)C[C@H]3C(=O)NC5(C)C)n(C)c12 [Example 933, (5~{S},7~{S})-14-[5-[(1~{S},4~{R},5~{R})-4-amino-2-azabicyclo[3.2.1]octane-2-carbonyl]-7-methoxy-1-methyl-benzimidazol-2-yl]-7-fluoro-2,2-dimethyl-3,13,19-triazatetracyclo[11.5.2.0^ {5,7}.0^{16,20}]icosa-1(18), 14,16,19-tetraen-4-one] | 27 nM |
| COc1cc(C(=O)N2C[C@H](N)[C@@H]3CC[C@H]2C3)cc2nc(-c3cc4ccc5nc4n3CCCCCc3nc(C(F)(F)F)ncc3C(=O)N[C@@H]5C)n(C3CC3)c12 [Example 934, (2~{R})-17-[5-[(1~{S),4~{R},5~ {R})-4-amino-2-azabicyclo [3.2.1]octane-2-carbonyl]-1-cyclopropyl-7-methoxy-benzimidazol-2-yl]-2-methyl-8-(trifluoromethyl)-3,7,9,16,22-pentazatetracyclo[14.5.2.0^ {5,10}.0^{19,23}]tricosa-1(21),5(10),6,8,17,19,22-heptaen-4-one] | 103 nM |
| COc1cc(C(=O)N2C[C@H](N)[C@@H]3CC[C@H]2C3)cc2nc(-c3cc4ccc5nc4n3CCCCCc3cc(F)cc(F)c3C(=O)N[C@@H]5C)n(C)c12 [Example 935, (2~{R})-17-[5-[(1~{S),4~{R},5~ {R})-4-amino-2-azabicyclo[3.2.1]octane-2-carbonyl]-7-methoxy-1-methyl-benzimidazol-2-yl]-6,8-difluoro-2-methyl-3,16,22-triazatetracyclo[14.5.2.0^ {5,10}.0^{19,23}]tricosa-1(21),5(10),6,8,17,19,22-heptaen-4-one] | 29 nM |
| COc1cc(C(=O)N2C[C@H](N)[C@@H]3CC[C@H]2C3)cc2nc(-c3cc4ccc5nc4n3CCCCCc3ccccc3C(=O)N[C@@H]5C)c(C)n12 [Example 936, (2~{R})-17-[7-[(1~{S},4~{R}, 5~{R})-4-amino-2-azabicyclo [3.2.1]octane-2-carbonyl]-5-methoxy-3-methyl-imidazo [1,2-a]pyridin-2-yl]-2-methyl-3,16,22-triazatetracyclo [14.5.2.0^{5,10).0^{19,23}] tricosa-1(21),5(10),6,8,17,19,22-heptaen-4-one] | 39 nM |
| COc1cc(C(=O)N2CCC[C@@H](N)C2)cc2nc(-c3cc4ccc5nc4n3CCCCCCCCS(=O)(=O)N5C)n(C)c12 [Example 937] | 187 nM |
| CCn1c(-c2cc3ccc4nc3n2CCCCC[C@]2(F)C[C@H]2C(=O)N[C@@H]4C)nc2cc(C(=O)N3C[C@H](N)[C@@H]4CC[C@H]3C4)cc(F)c21 [Example 938, (2~{R},5~{S},7~{S})-14-[5-[(1~{S),4~{R},5~{R})-4-amino-2-azabicyclo[3.2.1]octane-2-carbonyl]-1-ethyl-7-fluoro-benzimidazol-2-yl]-7-fluoro-2-methyl-3,13,19-triazatetracyclo[11.5.2.0^ {5,7}.0^{16,20}]icosa-1(19), 14,16(20),17-tetraen-4-one] | 28 nM |
| CCn1c(-c2cc3ccc4nc3n2CCCCCc2nc(Cl)ccc2C(=O)N[C@@H]4C)nc2cc(C(=O)N3C[C@H](N)[C@@H]4CC[C@H]3C4)cc(F)c21 [Example 939, (2~{R})-17-[5-[(1~{S),4~{R}, 5~{R})-4-amino-2-azabicyclo [3.2.1]octane-2-carbonyl]-1-ethyl-7-fluoro-benzimidazol-2-yl]-8-chloro-2-methyl-3,9,16,22-tetrazatetracyclo[14.5.2.0^ {5,10}.0^{19,23}]tricosa-1(22),5(10),6,8,17,19(23),20-heptaen-4-one] | 44 nM |
| COc1cc(C(=O)N2C[C@H](N)[C@@H]3CC[C@H]2C3)cc2nc(-c3cc4ccc5nc4n3CC(F)(F)CCCCC3(CC3)C(=O)N[C@@H]5C)n(C3CC3)c12 [Example 940, (11~{R})-17-[5-[(1~{S},4~{R}, 5~{R})-4-amino-2-azabicyclo [3.2.1]octane-2-carbonyl]-1-cyclopropyl-7-methoxy-benzimidazol-2-yl]-3,3-difluoro-11-methyl-spiro[1,10,19-triazatricyclo [10.5.2.0^{15,18}]nonadeca-12(19),13,15(18),16-tetraene-8,1′-cyclopropane]-9-one] | 80 nM |
| COc1cc(C(=O)N2C[C@H](N)[C@@H]3CC[C@H]2C3)cc2nc(-c3cc4ccc5nc4n3CC(F)(F)CCCCC(C)(C)C(=O)N[C@@H]5C)n(C3CC3)c12 [Example 941, (11~{R})-17-[5-[(1~{S},4~{R}, 5~{R})-4-amino-2-azabicyclo [3.2.1]octane-2-carbonyl]-1-cyclopropyl-7-methoxy-benzimidazol-2-yl]-3,3-difluoro-8,8,11-trimethyl-1,10,19-triazatricyclo[10.5.2.0^{15,18}] nonadeca-12(19), 13,15(18),16-tetraen-9-one] | 68 nM |
| COc1cc(C(=O)N2C[C@H](N)[C@@H]3CC[C@H]2C3)cc2nc(-c3cc4ccc5nc4n3CCCCCc3cc(C(F)(F)F)ncc3C(=O)N[C@@H]5C)n(C3CC3)c12 [Example 942, (2~{R})-17-[5-[(1~{S},4~{R},5~ {R})-4-amino-2-azabicyclo [3.2.1]octane-2-carbonyl]-1-cyclopropyl-7-methoxy-benzimidazol-2-yl]-2-methyl-8-(trifluoromethyl)-3,7,16,22-tetrazatetracyclo[14.5.2.0^ {5,10).0^{19,23}]tricosa-1(22), 5(10),6,8,17,19(23),20-heptaen-4-one] | 72 nM |
| COc1cc(C(=O)N2C[C@H](N)[C@@H]3CC[C@H]2C3)cc2nc(-c3cc4ccc5nc4n3CC(F)(F)CCCCC(C)(C)C(=O)N[C@@H]5C)n(C)c12 [Example 943, (11~{R})-17-[5-[(1~{S},4~{R}, 5~{R})-4-amino-2-azabicyclo [3.2.1]octane-2-carbonyl]-7-methoxy-1-methyl-benzimidazol-2-yl]-3,3-difluoro-8,8,11-trimethyl-1,10,19-triazatricyclo[10.5.2.0^{15,18}] nonadeca-12(19), 13,15(18),16-tetraen-9-one] | 48 nM |
